Source: patent US20180344641A1, “MESOPOROUS SILICA NANOPARTICLES AND SUPPORTED LIPID BI-LAYER NANOPARTICLES FOR BIOMEDICAL APPLICATIONS” (priority 2015, published 2018)

Tests used:
[1] = Federico et al., 2012; cited from earlier work
REH+EGFR cells = experiment: Cell viability, CellTiter-Glo 2.0 Assay; format: cell-based, human; settings: free GEM 0 to 30 uM 1 hour, viability at 24 hours
Protocol: (§1) Whole human blood was acquired from healthy donors with informed consent and stabilized in K2EDTA tubes (BD Biosciences). hRBCs were purified following reported procedure (Liao et al., 2011), then incubated with either bare mMSNs or protocells (25, 50, 100, 200, and 400 μg/mL) at 37° C. After 3 hours of exposure, samples were centrifuged at 300 g for 3 minutes, then 100 μL of supernatant from each sample was transferred to a 96-well plate. Hemoglobin absorbance was measured using a BioTek microplate reader (Winooski, Vt.) at 541 nm. The percent hemolysis of each sample was quantified using a reported equation (Liao et al., 2011). In addition, we examined the biocompatibility of anti-EGFR targeted protocells in vitro. We incubated about 1.5×10^5 cells/mL of REH and REH+EGFR cell lines with either 12.5, 25, 50, 100, and 200 μg/mL of anti-EGFR targeted protocells in complete medium for 1 hour at 37° C. Cells were washed twice in complete media and transferred to a 96-well plate for 24 hours at 37° C. Cell viability was assessed by CellTiter-Glo® 2.0 Assay as measured by BioTek microplate reader. The cell viability was calculated as a percentage of non-protocell treated sample.
(§2) […] Cell viability was assessed by CellTiter-Glo® 2.0 Assay as measured by BioTek microplate reader. The cell viability was calculated as a percentage of non-protocell treated sample.

REH cells = experiment: Cell viability, CellTiter-Glo 2.0 Assay; format: cell-based, human; settings: free GEM 0 to 30 uM 1 hour, viability at 24 hours
Protocol: as §1, §2

## Nc1ccn([C@@H]2O[C@H](CO)[C@@H](O)C2(F)F)c(=O)n1 [GEM, Gemcitabine]
[1]
  plasma half-life: 8 to 17 min
REH+EGFR cells
  viability of REH+EGFR cells: Loss in cell viability of REH and REH+EGFR cells
REH cells
  viability of REH cells: Loss in cell viability of REH and REH+EGFR cells
